Values after ≈ are worked out from the molar mass of the structure shown. Where two headings read alike, the source gives them in different places.
Tests used:
Type in all cases: cell-based
E. coli ATCC25922 = assay: MIC determination, broth microdilution (CLSI); conditions: Escherichia coli, ATCC25922, strain 1
K. pneumoniae 60 = assay: MIC determination, broth microdilution (CLSI); conditions: Klebsiella pneumoniae, 60, strain 2
E. cloacae 34654 = assay: MIC determination, broth microdilution (CLSI); conditions: Enterobacter cloacae, 34654, strain 3
C. freundii K21/3034 = assay: MIC determination, broth microdilution (CLSI); conditions: Citrobacter freundii, K21/3034, strain 4
M. morganii 126/3048 = assay: MIC determination, broth microdilution (CLSI); conditions: Morganella morganii, 126/3048, strain 5
P. aeruginosa PAO1 = assay: MIC determination, broth microdilution (CLSI); conditions: Pseudomonas aeruginosa, PAO1, strain 6
[1] = tested on: P. aeruginosa 2297 (AmpC wt); assay: MIC determination, broth microdilution (CLSI); conditions: Pseudomonas aeruginosa, strain 7
A. baumannii ATCC15308 = assay: MIC determination, broth microdilution (CLSI); conditions: Acinetobacter baumannii, ATCC15308, strain 9
S. maltophilia ICB7569 = assay: MIC determination, broth microdilution (CLSI); conditions: Stenotrophomonas maltophilia, ICB7569, strain 10
S. aureus 133 = assay: MIC determination, broth microdilution (CLSI)
H. influenzae ATCC 49247 = assay: MIC determination, broth microdilution (CLSI); conditions: Haemophilus influenzae, ATCC49247, strain 12; broth microdilution; read-out: MIC strain 12 (H. influenzae ATCC 49247)
S. pneumoniae 113 = assay: MIC determination, broth microdilution (CLSI); conditions: Streptococcus pneumoniae, 113, strain 13; broth microdilution; read-out: MIC strain 13 (S. pneumoniae 113)
E. coli J62 = assay: MIC determination, broth microdilution (CLSI); conditions: Escherichia coli, J62, strain 17; broth microdilution; read-out: MIC strain 17 (E. coli J62)
E. coli J62-TEM-3 = assay: MIC determination, broth microdilution (CLSI); conditions: Escherichia coli, J62TEM3, read-out: MIC strain 18 (E. coli J62-TEM-3), strain 18; broth microdilution
Bacteria = assay: MIC determination in combination with β-lactamase inhibitors (constant 4 μg/mL)
B. fragilis 6688 = assay: MIC determination, broth microdilution (CLSI); conditions: Bacteroides fragilis, 6688, strain 15; broth microdilution; read-out: MIC strain 15 (B. fragilis 6688)
[2] = tested on: P. aeruginosa 2297-con (AmpC derepressed); assay: MIC determination, broth microdilution (CLSI); conditions: Pseudomonas aeruginosa, read-out: strain 8 MIC, strain 8
[3] = Staphylococcus aureus, 133, strain 11, read-out: strain 11 MIC
[4] = Staphylococcus aureus, 133, strain 14, broth microdilution, read-out: MIC strain 14 (S. aureus 133)

Structure (SMILES)	MIC (E. coli ATCC25922) [µg/mL]	MIC (K. pneumoniae 60) [µg/mL]	MIC (E. cloacae 34654) [µg/mL]	MIC (C. freundii K21/3034) [µg/mL]	MIC (M. morganii 126/3048) [µg/mL]	MIC (P. aeruginosa PAO1) [µg/mL]	MIC [1] [µg/mL]	MIC (A. baumannii ATCC15308) [µg/mL]	MIC (S. maltophilia ICB7569) [µg/mL]	MIC (S. aureus 133; [3]) [µg/mL]	MIC (S. aureus 133; [4]) [µg/mL]	MIC (H. influenzae ATCC 49247) [µg/mL]	MIC (S. pneumoniae 113) [µg/mL]	MIC (E. coli J62) [µg/mL]	MIC (E. coli J62-TEM-3) [µg/mL]	MIC strain 19 (E. coli J62-TEM-3 + 4 μg/mL clavulanic acid) (Bacteria) [µg/mL]	MIC strain 20 (E. coli J62-TEM-3 + 4 μg/mL sulbactam) (Bacteria) [µg/mL]	MIC strain 21 (E. coli J62-TEM-3 + 4 μg/mL tazobactam) (Bacteria) [µg/mL]	MIC (B. fragilis 6688) [µg/mL]	MIC [2] [µg/mL]
C[C@H]1[C@H](NC(=O)/C(=N\OCCOc2ccc(C(=N)NN)cc2)c2csc(N)n2)C(=O)N1S(=O)(=O)O [Example 64, (2S,3S)-3-({(2Z)-2-(2-Amino-1,3-thiazol-4-yl)-2-[(2-{4-[hydrazinyl(imino)methyl]phenoxy}ethoxy)imino]acetyl}amino)-2-methyl-4-oxoazetidine-1-sulfonic acid]	0.5 (≈ 0.95 µM)	0.25 (≈ 0.475 µM)	0.5 (≈ 0.95 µM)	0.5 (≈ 0.95 µM)	0.5 (≈ 0.95 µM)	8 (≈ 15.2 µM)	16 (≈ 30.4 µM)	8 (≈ 15.2 µM)	32 (≈ 60.8 µM)	16 (≈ 30.4 µM)	8 (≈ 15.2 µM)	8 (≈ 15.2 µM)	32 (≈ 60.8 µM)	1 (≈ 1.9 µM)	32 (≈ 60.8 µM)	1	1	2		
C[C@H]1[C@H](NC(=O)/C(=N\OCCOc2cc(C(=N)N)nn2C)c2csc(N)n2)C(=O)N1S(=O)(=O)O [Example 71, (2S,3S)-3-{[(2Z)-2-(2-Amino-1,3-thiazol-4-yl)-2-({2-[(3-carbamimidoyl-1-methyl-1H-pyrazol-5-yl)oxy]ethoxy}imino)acetyl]amino}-2-methyl-4-oxoazetidine-1-sulfonic acid]	2 (≈ 3.88 µM)	1 (≈ 1.94 µM)	4 (≈ 7.76 µM)	1 (≈ 1.94 µM)	1 (≈ 1.94 µM)	16 (≈ 31 µM)	32 (≈ 62.1 µM)	4 (≈ 7.76 µM)	4 (≈ 7.76 µM)	0.25 (≈ 0.485 µM)		1 (≈ 1.94 µM)	0.5 (≈ 0.97 µM)	8 (≈ 15.5 µM)	32 (≈ 62.1 µM)	2	4	4	8 (≈ 15.5 µM)	
CNC(=N)c1ccc(OCCO/N=C(\C(=O)N[C@@H]2C(=O)N(S(=O)(=O)O)[C@H]2C)c2csc(N)n2)cc1 [Example 68, (2S,3S)-3-{[(2Z)-2-(2-Amino-1,3-thiazol-4-yl)-2-({2-[4-(N-methylcarbamimidoyl)-phenoxy]ethoxy}imino)acetyl]amino}-2-methyl-4-oxoazetidine-1-sulfonic acid]	0.125 (≈ 0.238 µM)	0.25 (≈ 0.476 µM)	0.125 (≈ 0.238 µM)	0.125 (≈ 0.238 µM)	0.125 (≈ 0.238 µM)	2 (≈ 3.81 µM)	8 (≈ 15.2 µM)	2 (≈ 3.81 µM)		≤ 0.063	2 (≈ 3.81 µM)	0.125 (≈ 0.238 µM)	0.5 (≈ 0.951 µM)	0.25 (≈ 0.476 µM)	16 (≈ 30.4 µM)	0.125	0.25	0.25	8 (≈ 15.2 µM)	32 (≈ 60.9 µM)
C[C@H]1[C@H](NC(=O)/C(=N\OCCOc2ccc(C(=N)N)cc2CO)c2csc(N)n2)C(=O)N1S(=O)(=O)O [Example 59, (2S,3S)-3-{[(2Z)-2-(2-Amino-1,3-thiazol-4-yl)-2-({2-[4-carbamimidoyl-2-(hydroxymethyl)phenoxy]ethoxy}imino)acetyl]amino}-2-methyl-4-oxoazetidine-1-sulfonic acid]	1 (≈ 1.85 µM)	1 (≈ 1.85 µM)	1 (≈ 1.85 µM)	0.5 (≈ 0.923 µM)	1 (≈ 1.85 µM)	16 (≈ 29.5 µM)	16 (≈ 29.5 µM)	1 (≈ 1.85 µM)		0.25 (≈ 0.462 µM)	32 (≈ 59.1 µM)	1 (≈ 1.85 µM)	0.5 (≈ 0.923 µM)	2 (≈ 3.69 µM)	32 (≈ 59.1 µM)	2	2	2	16 (≈ 29.5 µM)	32 (≈ 59.1 µM)
C[C@H]1[C@H](NC(=O)/C(=N\OCCOc2ccc(C(=N)N)cc2COC=O)c2csc(N)n2)C(=O)N1S(=O)(=O)O [Example 60, (2S,3S)-3-({(2Z)-2-(2-Amino-1,3-thiazol-4-yl)-2-[(2-{4-carbamimidoyl-2-[(formyloxy)-methyl]phenoxy}ethoxy)imino]acetyl}amino)-2-methyl-4-oxoazetidine-1-sulfonic acid]	1 (≈ 1.76 µM)	1 (≈ 1.76 µM)	2 (≈ 3.51 µM)	1 (≈ 1.76 µM)	0.5 (≈ 0.878 µM)	16 (≈ 28.1 µM)	16 (≈ 28.1 µM)	4 (≈ 7.02 µM)		0.25 (≈ 0.439 µM)	16 (≈ 28.1 µM)	1 (≈ 1.76 µM)	1 (≈ 1.76 µM)	2 (≈ 3.51 µM)	32 (≈ 56.2 µM)	2	2	2	16 (≈ 28.1 µM)	32 (≈ 56.2 µM)
C[C@H]1[C@H](NC(=O)/C(=N\OCCOc2ccc(CC(=N)N)cc2)c2csc(N)n2)C(=O)N1S(=O)(=O)O [Example 62, (2S,3S)-3-{[(2Z)-2-({2-[4-(2-Amino-2-iminoethyl)phenoxy]ethoxy}imino)-2-(2-amino-1,3-thiazol-4-yl)acetyl]amino}-2-methyl-4-oxoazetidine-1-sulfonic acid]	1 (≈ 1.9 µM)	0.5 (≈ 0.951 µM)	1 (≈ 1.9 µM)	0.5 (≈ 0.951 µM)	0.125 (≈ 0.238 µM)	4 (≈ 7.61 µM)	8 (≈ 15.2 µM)	2 (≈ 3.81 µM)		0.125 (≈ 0.238 µM)	8 (≈ 15.2 µM)	0.25 (≈ 0.476 µM)	1 (≈ 1.9 µM)	1 (≈ 1.9 µM)	16 (≈ 30.4 µM)	1	1	1	16 (≈ 30.4 µM)	32 (≈ 60.9 µM)
C[C@H]1[C@H](NC(=O)/C(=N\OCCOc2ccc(C(=N)N)cc2Br)c2csc(N)n2)C(=O)N1S(=O)(=O)O [Example 49, (2S,3S)-3-{[(2Z)-2-(2-Amino-1,3-thiazol-4-yl)-2-{[2-(2-bromo-4-carbamimidoyl-phenoxy)ethoxy]imino}acetyl]amino}-2-methyl-4-oxoazetidine-1-sulfonic acid]	1 (≈ 1.69 µM)	2 (≈ 3.39 µM)	2 (≈ 3.39 µM)	1 (≈ 1.69 µM)	2 (≈ 3.39 µM)	8 (≈ 13.5 µM)	16 (≈ 27.1 µM)	4 (≈ 6.77 µM)		0.125 (≈ 0.212 µM)	16 (≈ 27.1 µM)	0.5 (≈ 0.847 µM)	0.5 (≈ 0.847 µM)	2 (≈ 3.39 µM)		2	2	2	16 (≈ 27.1 µM)	32 (≈ 54.2 µM)

Source: patent US9556165B2 (priority 2012, dated 2017)
